Literature values, collected in article PMC9516332 (Frontiers in Oncology, 2022).
Where two headings read alike, the source gives them in different places.

Key:
Settings in all cases: cited from earlier work
[1] = target: panel of 255 wild-type kinases (Homo sapiens, UniProt P07947)
[2] = target: panel of 255 wild-type kinases (Homo sapiens, UniProt P08069)
[3] = target: panel of 255 wild-type kinases (Homo sapiens, UniProt P09619)
[4] = target: panel of 255 wild-type kinases (Homo sapiens, UniProt P24941)
[5] = target: panel of 255 wild-type kinases (Homo sapiens, UniProt P29597)
[6] = target: panel of 255 wild-type kinases (Homo sapiens, UniProt P51451)
[7] = target: panel of 255 wild-type kinases (Homo sapiens, UniProt Q00535)
[8] = target: T1, panel of 255 wild-type kinases (Homo sapiens, UniProt Q13976)
T1 sequence (Q13976 1-671): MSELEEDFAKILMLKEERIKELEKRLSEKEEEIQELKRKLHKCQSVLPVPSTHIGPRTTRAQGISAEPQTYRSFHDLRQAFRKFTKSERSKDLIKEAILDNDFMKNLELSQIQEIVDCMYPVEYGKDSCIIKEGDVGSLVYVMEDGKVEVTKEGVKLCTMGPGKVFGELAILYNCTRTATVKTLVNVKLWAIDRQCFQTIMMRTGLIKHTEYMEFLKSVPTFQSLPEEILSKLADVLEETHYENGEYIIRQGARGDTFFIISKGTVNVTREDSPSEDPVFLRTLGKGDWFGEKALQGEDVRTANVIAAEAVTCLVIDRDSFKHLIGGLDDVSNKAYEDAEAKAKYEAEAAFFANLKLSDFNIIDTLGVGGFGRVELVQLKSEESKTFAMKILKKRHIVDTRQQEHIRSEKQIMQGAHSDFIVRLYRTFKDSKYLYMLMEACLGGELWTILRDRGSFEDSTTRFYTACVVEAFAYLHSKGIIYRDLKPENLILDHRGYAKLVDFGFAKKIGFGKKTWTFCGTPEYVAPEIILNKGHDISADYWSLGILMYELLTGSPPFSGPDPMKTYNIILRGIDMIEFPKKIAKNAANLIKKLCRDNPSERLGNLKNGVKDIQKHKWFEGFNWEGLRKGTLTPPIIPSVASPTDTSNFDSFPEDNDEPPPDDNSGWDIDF

[9] = target: panel of 255 wild-type kinases (Homo sapiens, UniProt Q8IU85)
[10] = target: panel of 255 wild-type kinases (Homo sapiens, UniProt Q8IY84)
[11] = target: T2, panel of 255 wild-type kinases (Homo sapiens, UniProt Q9BZL6)
T2 sequence (Q9BZL6 1-878): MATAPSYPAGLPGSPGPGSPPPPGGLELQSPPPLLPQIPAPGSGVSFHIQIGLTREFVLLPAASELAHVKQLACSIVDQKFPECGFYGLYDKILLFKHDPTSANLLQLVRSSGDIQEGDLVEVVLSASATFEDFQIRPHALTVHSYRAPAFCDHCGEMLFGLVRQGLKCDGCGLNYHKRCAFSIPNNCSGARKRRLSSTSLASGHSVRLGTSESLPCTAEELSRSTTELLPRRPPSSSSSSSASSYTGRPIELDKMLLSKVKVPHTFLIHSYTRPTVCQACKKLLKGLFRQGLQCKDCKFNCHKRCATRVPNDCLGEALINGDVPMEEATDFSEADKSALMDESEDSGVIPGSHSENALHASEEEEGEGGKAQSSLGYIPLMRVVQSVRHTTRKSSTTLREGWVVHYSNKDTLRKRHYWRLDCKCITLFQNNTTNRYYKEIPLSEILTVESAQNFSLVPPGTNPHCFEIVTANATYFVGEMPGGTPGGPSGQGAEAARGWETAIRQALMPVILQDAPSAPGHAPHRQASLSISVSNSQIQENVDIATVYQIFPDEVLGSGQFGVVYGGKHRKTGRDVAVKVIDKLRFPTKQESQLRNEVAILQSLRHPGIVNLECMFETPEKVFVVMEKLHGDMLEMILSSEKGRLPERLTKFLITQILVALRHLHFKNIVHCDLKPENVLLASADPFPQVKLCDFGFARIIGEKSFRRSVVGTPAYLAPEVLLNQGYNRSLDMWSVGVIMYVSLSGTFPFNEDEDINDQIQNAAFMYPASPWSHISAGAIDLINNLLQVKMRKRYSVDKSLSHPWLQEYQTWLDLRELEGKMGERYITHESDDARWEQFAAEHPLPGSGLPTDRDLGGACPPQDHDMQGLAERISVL

[12] = target: panel of 255 wild-type kinases (Homo sapiens, UniProt Q9H422)
[13] = kinase YES, 1 µmol/L single concentration, ref DOI: 10.1158/1535-7163.MCT-18-0877
[14] = kinase IGF1R, 1 µmol/L single concentration, ref DOI: 10.1158/1535-7163.MCT-18-0877
[15] = kinase PDGFRβ, 1 µmol/L single concentration, ref DOI: 10.1158/1535-7163.MCT-18-0877
[16] = CDK2/CycA2 kinase assay, 1 µmol/L single concentration, ref DOI: 10.1158/1535-7163.MCT-18-0877
[17] = CDK2/CycE1 kinase assay, 1 µmol/L single concentration, ref DOI: 10.1158/1535-7163.MCT-18-0877
[18] = kinase TYK2, 1 µmol/L single concentration, ref DOI: 10.1158/1535-7163.MCT-18-0877
[19] = BLK kinase assay, 1 µmol/L single concentration, ref DOI: 10.1158/1535-7163.MCT-18-0877
[20] = CDK5/p25 kinase assay, 1 µmol/L single concentration, ref DOI: 10.1158/1535-7163.MCT-18-0877
[21] = kinase PGK, 1 µmol/L single concentration, ref DOI: 10.1158/1535-7163.MCT-18-0877
[22] = CaMK1δ kinase assay, 1 µmol/L single concentration, ref DOI: 10.1158/1535-7163.MCT-18-0877
[23] = NIM1K, 1 µmol/L single concentration, ref DOI: 10.1158/1535-7163.MCT-18-0877
[24] = kinase PKD2, 1 µmol/L single concentration, ref DOI: 10.1158/1535-7163.MCT-18-0877
[25] = kinase HIPK3, 1 µmol/L single concentration, ref DOI: 10.1158/1535-7163.MCT-18-0877

CCc1cc2c(cc1N1CCC(N3CCOCC3)CC1)C(C)(C)c1[nH]c3cc(C#N)ccc3c1C2=O [alectinib]
%-inhibition at 1 µmol/L, YES [1, 13]: 44%
%-inhibition at 1 µmol/L, IGF1R [2, 14]: 10%
%-inhibition at 1 µmol/L, PDGFRβ [3, 15]: 26%
%-inhibition CDK2/CycA2 [4, 16]: 5.68%
%-inhibition CDK2/CycE1 [4, 17]: -2.55%
%-inhibition at 1 µmol/L, TYK2 [5, 18]: 14%
%-inhibition BLK [6, 19]: 17%
%-inhibition CDK5/p25 [7, 20]: -12%
%-inhibition at 1 µmol/L, PGK [8, 21]: -1.53%
%-inhibition CaMK1δ [9, 22]: -3.42%
%-inhibition, NIM1K [10, 23]: -2.13%
%-inhibition at 1 µmol/L, PKD2 [11, 24]: -1.05%
%-inhibition at 1 µmol/L, HIPK3 [12, 25]: 3.19%

COc1cc(N2CCC(N3CCN(C)CC3)CC2)ccc1Nc1ncc(Cl)c(Nc2ccccc2P(C)(C)=O)n1 [brigatinib]
%-inhibition at 1 µmol/L, YES [1]: 102%
%-inhibition at 1 µmol/L, IGF1R [2]: 99%
%-inhibition at 1 µmol/L, PDGFRβ [3]: 94%
%-inhibition CDK2/CycA2 [4]: 53%
%-inhibition CDK2/CycE1 [4]: 30%
%-inhibition at 1 µmol/L, TYK2 [5]: 23%
%-inhibition BLK [6]: 83%
%-inhibition CDK5/p25 [7]: 40%
%-inhibition at 1 µmol/L, PGK [8]: 60%
%-inhibition CaMK1δ [9]: 62%
%-inhibition, NIM1K [10]: 3%
%-inhibition at 1 µmol/L, PKD2 [11]: 86%
%-inhibition at 1 µmol/L, HIPK3 [12]: 7%

Cc1cc(Nc2ncc(Cl)c(Nc3ccccc3S(=O)(=O)C(C)C)n2)c(OC(C)C)cc1C1CCNCC1 [ceritinib]
%-inhibition at 1 µmol/L, YES [1, 13]: 31%
%-inhibition at 1 µmol/L, IGF1R [2, 14]: 103%
%-inhibition at 1 µmol/L, PDGFRβ [3, 15]: 55%
%-inhibition CDK2/CycA2 [4, 16]: -5.32%
%-inhibition CDK2/CycE1 [4, 17]: -7.57%
%-inhibition at 1 µmol/L, TYK2 [5, 18]: 13%
%-inhibition BLK [6, 19]: 2%
%-inhibition CDK5/p25 [7, 20]: -22%
%-inhibition at 1 µmol/L, PGK [8, 21]: 38%
%-inhibition CaMK1δ [9, 22]: 48%
%-inhibition, NIM1K [10, 23]: -1.37%
%-inhibition at 1 µmol/L, PKD2 [11, 24]: 25%
%-inhibition at 1 µmol/L, HIPK3 [12, 25]: 7.48%

O=C(c1ccc(F)c(F)c1Nc1ccc(I)cc1F)N1CC(O)([C@@H]2CCCCN2)C1 [cobimetinib]
%-inhibition at 1 µmol/L, YES [1, 13]: -0.706%
%-inhibition at 1 µmol/L, IGF1R [2, 14]: 6%
%-inhibition at 1 µmol/L, PDGFRβ [3, 15]: 2%
%-inhibition CDK2/CycA2 [4, 16]: -8%
%-inhibition CDK2/CycE1 [4, 17]: -8%
%-inhibition at 1 µmol/L, TYK2 [5, 18]: 6.35%
%-inhibition BLK [6, 19]: 10%
%-inhibition CDK5/p25 [7, 20]: -7%
%-inhibition at 1 µmol/L, PGK [8, 21]: 2.54%
%-inhibition CaMK1δ [9, 22]: 1%
%-inhibition, NIM1K [10, 23]: -3.67%
%-inhibition at 1 µmol/L, PKD2 [11, 24]: -11%
%-inhibition at 1 µmol/L, HIPK3 [12, 25]: 2.74%

C=CC(=O)Nc1cc(Nc2nccc(-c3cn(C)c4ccccc34)n2)c(OC)cc1N(C)CCN(C)C [osimertinib]
%-inhibition at 1 µmol/L, YES [1, 13]: 13%
%-inhibition at 1 µmol/L, IGF1R [2, 14]: 84%
%-inhibition at 1 µmol/L, PDGFRβ [3, 15]: 87%
%-inhibition CDK2/CycA2 [4, 16]: -6%
%-inhibition CDK2/CycE1 [4, 17]: 24%
%-inhibition at 1 µmol/L, TYK2 [5, 18]: 9%
%-inhibition BLK [6, 19]: 66%
%-inhibition CDK5/p25 [7, 20]: -0.719%
%-inhibition at 1 µmol/L, PGK [8, 21]: 3.61%
%-inhibition CaMK1δ [9, 22]: 9%
%-inhibition, NIM1K [10, 23]: -10%
%-inhibition at 1 µmol/L, PKD2 [11, 24]: 16%
%-inhibition at 1 µmol/L, HIPK3 [12, 25]: 20%
